Patent US20100285959A1, “HERBICIDAL MIXTURES” (priority 2006, published 2010)
Each block holds one compound with its values, some of them ahead of it.

Experiments:
[1] = test system: alexandergrass (BRAPL); assay: Test 11 field trial, preemergence; type: in vivo, Brachiaria plantaginea; design: scale not given here
Text: Corn seeds (hybrid ‘Pioneer 3041’) were planted in mid spring season, 5 cm deep in a clay soil having 2.6% organic matter and a pH of 5.6. Plots were 8 m long by 1.5 m wide with rows spaced 80 cm apart. Seeds were spaced 15 cm apart within the rows. The field was managed using conventional tillage practices. […] Treatments consisted of Compound 2 or
Goosegrass was not evaluated 16 or 91 days after application.

[2] = test system: barley (HORVX); assay: Test 30 growth chamber, postemergence; type: in vivo, Hordeum vulgare; details: 18 DAA
Experimental: A growth chamber test was conducted to evaluate the effects on the plant species wheat (TRZAW, Triticum aestivum L.) and barley (HORVX, Hordeum vulgare L.) with mixtures of Compound 1 and Compound 2 with glycerol. Wheat and barley seeds were planted in a sandy loam soil having 0.9% organic matter and a pH of 6.3. […] Wheat and barley plants were treated postemergence at the two leaf growth stage for Compound 1 and at the three leaf growth stage for Compound 2. Each treatment was replicated one time. […] Plants were watered as needed. […] Colby's Equation was used to determine herbicidal effects expected from the mixtures.

[3] = test system: ivyleaf morningglory (IPOHE); assay: Test 10 field trial, preemergence; type: in vivo, Ipomoea hederacea; details: 28 DAA; g a.i./ha: Cpd 2 100, Atrazine 1680, S-Metolachlor 1870
Text: (§1) Corn seeds (hybrid ‘Pioneer 33P65 RR’) were planted in mid spring season, 2.5 cm deep in a silt loam soil. Plots were 9.1 m long by 3.0 m wide with rows spaced 76 cm apart. The field was managed using conventional tillage practices. […] Results are the means of the three replicates.

[4] = test system: giant foxtail (SETFA); assay: Test 6 field trial, postemergence; type: in vivo, Setaria faberi; details: 1120 g a.i./ha
Text: (§2) Corn seeds (hybrid ‘Pioneer 35Y62’) were planted in mid spring season, 3.8 cm deep in a silt loam soil having 4% organic matter and a pH of 5.8. Plots were 10.7 m long by 1.5 m wide with rows spaced 76 cm apart. Seeds were spaced 18 cm apart within the rows. The field was managed using conventional tillage practices. […] All treatments included a surfactant except glufosinate treatments, both alone and in combination. […] Results are summarized in Table 6 and are the means of the three replicates.

[5] = test system: common ragweed (AMBEL); assay: Test 8 field trial, preemergence; type: in vivo, Ambrosia artemisiifolia; details: g a.i./ha: Cpd 2 100, Atrazine 1680, S-Metolachlor 1870
Text: (§3) Corn seeds (hybrid ‘Pioneer 31G96’) were planted in mid spring season, 3.8 cm deep in a clay loam soil having 2% organic matter and a pH of 6.6. Plots were 6.1 m long by 3.0 m wide with rows spaced 76 cm apart. Seeds were spaced 15 cm apart within the rows. The field was managed using conventional tillage practices. […] A few of the weed species could not be evaluated at every timing. […] Results are the means of the three replicates.

[6] = test system: common waterhemp (AMATA); assay: Test 10 field trial, preemergence; type: in vivo, Amaranthus tamariscinus; details: 28 DAA; g a.i./ha: Cpd 2 100, Atrazine 1680, S-Metolachlor 1870
Text: as §1

[7] = test system: redroot pigweed (AMARE); assay: Test 1 field trial, preemergence; type: in vivo, Amaranthus retroflexus; details: g a.i./ha: Atrazine 1680, S-Metolachlor 1870
Text: Corn seeds (hybrid ‘Pioneer 34N43’) were planted in mid spring season, 3.8 cm deep in a silt loam soil having 4.6% organic matter and a pH of 6. Plots were 10.7 m long by 1.5 m wide with rows spaced 76 cm apart. Seeds were spaced 18 cm apart within the rows. The field was managed using conventional tillage practices. […] Results are summarized in Table 1 and are the means of the three replicates. […] Colby's Equation (Colby, S. R. “Calculating Synergistic and Antagonistic Responses of Herbicide Combinations,” Weeds, 15(1), pp 20-22 (1967)) calculates the expected additive effect of herbicidal mixtures, and for two active ingredients is of the form:
Pa+b=Pa+Pb−(PaPb/100) • wherein Pa+b is the percentage effect of the mixture expected from additive contribution of the individual components, • Pa is the observed percentage effect of the first active ingredient at the same use rate as in the mixture, and • Pb is the observed percentage effect of the second active ingredient at the same use rate as in the mixture.

[8] = test system: velvetleaf (ABUTH); assay: Test 6 field trial, postemergence; type: in vivo, Abutilon theophrasti; details: 1120 g a.i./ha
Text: as §2

[9] = test system: giant foxtail (SETFA); assay: Test 8 field trial, preemergence; type: in vivo, Setaria faberi; details: g a.i./ha: Cpd 2 100, Atrazine 1680, S-Metolachlor 1870
Text: as §3

HORVX Obs ([2]; Cpd 1 1 g a.i./ha): 0%
HORVX Obs ([2]; Cpd 1 4 g a.i./ha): 20%
HORVX Obs ([2]; Cpd 1 16 g a.i./ha): 40%
SMILES: Nc1nc(C2CC2)nc(C(=O)O)c1Cl [Compound 1, 6-amino-5-chloro-2-cyclopropyl-4-pyrimidinecarboxylic acid]
BRAPL Obs ([1]; 16 DAA, Cpd 2/Cpd 1 at 62 g a.i./ha, alone or + atrazine 1500 or metolachlor 2500): 40
BRAPL Obs ([1]; 16 DAA, Cpd 2/Cpd 1 at 125 g a.i./ha, alone or + atrazine 1500 or metolachlor 2500): 40
BRAPL Obs ([1]; 30 DAA, Cpd 2/Cpd 1 at 62 g a.i./ha, alone or + atrazine 1500 or metolachlor 2500): 20
BRAPL Obs ([1]; 30 DAA, Cpd 2/Cpd 1 at 125 g a.i./ha, alone or + atrazine 1500 or metolachlor 2500): 60
BRAPL Obs ([1]; 44 DAA, Cpd 2/Cpd 1 at 62 g a.i./ha, alone or + atrazine 1500 or metolachlor 2500): 0
BRAPL Obs ([1]; 44 DAA, Cpd 2/Cpd 1 at 125 g a.i./ha, alone or + atrazine 1500 or metolachlor 2500): 40
BRAPL Obs ([1]; 62 DAA, Cpd 2/Cpd 1 at 62 g a.i./ha, alone or + atrazine 1500 or metolachlor 2500): 0
BRAPL Obs ([1]; 62 DAA, Cpd 2/Cpd 1 at 125 g a.i./ha, alone or + atrazine 1500 or metolachlor 2500): 0
BRAPL Obs ([1]; 91 DAA, Cpd 2/Cpd 1 at 62 g a.i./ha, alone or + atrazine 1500 or metolachlor 2500): 0
BRAPL Obs ([1]; 91 DAA, Cpd 2/Cpd 1 at 125 g a.i./ha, alone or + atrazine 1500 or metolachlor 2500): 0

SMILES: CCNc1nc(Cl)nc(NC(C)C)n1 [Atrazine, atrazine, reference compound]
BRAPL Obs ([1]; 16 DAA, atrazine 1500 or metolachlor 2500 g a.i./ha alone): 75
BRAPL Obs ([1]; 30 DAA, atrazine 1500 or metolachlor 2500 g a.i./ha alone): 50
BRAPL Obs ([1]; 44 DAA, atrazine 1500 or metolachlor 2500 g a.i./ha alone): 50
BRAPL Obs ([1]; 62 DAA, atrazine 1500 or metolachlor 2500 g a.i./ha alone): 0
BRAPL Obs ([1]; 91 DAA, atrazine 1500 or metolachlor 2500 g a.i./ha alone): 0
IPOHE Obs [3]: 37%
SETFA Obs ([4]; 14 DAA): 0%
SETFA Obs ([4]; 28 DAA): 0%
AMBEL Obs ([5]; 19 DAA): 83%
AMBEL Obs ([5]; 29 DAA): 98%
AMBEL Obs ([5]; 56 DAA): 100%
AMATA Obs [6]: 83%
AMARE Obs ([7]; 28 DAA): 100
AMARE Obs ([7]; 56 DAA): 93
ABUTH Obs ([8]; 14 DAA): 0%
ABUTH Obs ([8]; 28 DAA): 0%
SETFA Obs ([9]; 19 DAA): 60%
SETFA Obs ([9]; 29 DAA): 88%
SETFA Obs ([9]; 56 DAA): 67%

SMILES: CCc1cccc(C)c1N(C(=O)CCl)[C@@H](C)COC [S-Metolachlor, S-metolachlor, reference compound]
IPOHE Obs [3]: 23%
AMBEL Obs ([5]; 19 DAA): 32%
AMBEL Obs ([5]; 29 DAA): 23%
AMBEL Obs ([5]; 56 DAA): 23%
AMATA Obs [6]: 70%
AMARE Obs ([7]; 28 DAA): 100
AMARE Obs ([7]; 56 DAA): 80
SETFA Obs ([9]; 19 DAA): 93%
SETFA Obs ([9]; 29 DAA): 100%
SETFA Obs ([9]; 56 DAA): 94%
